Publication PMC6384891, “An automated microliter-scale high-throughput screening system (MSHTS) for real-time monitoring of protein aggregation using quantum-dot nanoprobes” (Scientific Reports, 2019)

What was measured:
[1] = target: T1, Aβ42 (Homo sapiens, UniProt P05067); assay: automated MSHTS system, Aβ aggregation inhibition imaged with QDAβ nanoprobe; assay type: biochemical
T1 construct: Human Aβ42 (4349-v, Peptide Institute); purchased Peptide Institute 4349-v
Protocol: An outline of the automated MSHTS system developed in this study is as follows (Fig. 1e). First, sample solutions, such as natural extracts and/or chemical compounds, were diluted stepwise in a 384-well plate. The diluted samples in this plate were injected into a 1536-well plate at 2.5 µl per well (Supplementary Fig. S6a). […] The 1536-well plate was sealed, and each well was imaged by a fluorescence microscope system. After incubation to induce aggregation for 24 h at 37 °C, each well was imaged by a fluorescence microscope system. The images were analyzed to determine the SD values of fluorescence intensity of each pixel. The half-maximal effective concentration (EC50) was estimated from the SD values according to our previous method.
The automated MSHTS system used was based on the method described in the Supplementary Methods. In this study, EC50 values of the plant crude extract library and the compound library were measured by the automated MSHTS system and the manual MSHTS system[19],[20], respectively. All fluorescence micrograph images were taken using a 4x objective in the MSHTS systems.
Automated MSHTS system–sample preparation and mixing with Aβ
Sample preparation was carried out using Automated Workstation JANUS G3 (Perkin Elmer).
To make a dilution series of samples, dilution buffer (10%EtOH, 1×PBS) was aspirated ( asp. speed:
20 µl/s) using a conductive chip that can detect liquid level and injected (dsp. height: 0.75 mm, dsp. speed: 10 µl/s) into each well of a 384-well plate (384 Hard-shell micro plate HSP3951, BIO-RAD) without wells for injecting stoc k sample solution. Stock sample solutions were prepared, and were injected manually into the vacant wells of the 384-well plate. As a control without any inhibitor, dilution buffer alone was injected into the well instead of stock sample solution. The stock sample solution or control solution was aspirated (asp. height: 2 mm, asp. speed: 10 µl/s), injected (dsp. height: 4 mm, dsp. speed: 10 µl/s) into the next well containing the dilution buffer, and mixed by pipetting (asp. height: 2 mm, dsp. height: 4 m m , mix speed: 25 µl/s, mix cycles: 5). This dilution st ep was repeated five times, so that si x dilution series were prepared for each sample. The diluted samples in the 384-well plate were aspirated using a 384-chip head (asp. height: 1 mm, asp. speed:
3 µl/s) and injected (quadruplicate) (dsp. height: 1 mm, dsp. speed: 10 µl/s) into a 1536-well plate (1536 well FIA black plate, Greiner Bio-One) at 2.5 µl per well. […]
After centrifugation in a multi-well plate centrifuge, the 1536-well plate was observed by an inverted fluorescence microscope system (ECLIPSE Ti-E, Nikon) equipped with a color CCD camer a (DS-Ri2, Nikon). […]

[2] = target: T1, Aβ42; assay: manual MSHTS system, Aβ aggregation inhibition; assay type: biochemical; details: 600 and 120 µM; 30 µM Aβ, 30 nM QD655- or QD605-labeled Aβ
Protocol: The automated MSHTS system used was based on the method described in the Supplementary Methods. In this study, EC50 values of the plant crude extract library and the compound library were measured by the automated MSHTS system and the manual MSHTS system[19],[20], respectively. All fluorescence micrograph images were taken using a 4x objective in the MSHTS systems. […]
concentrations of RA were incubated with 30 µM A β and 30 nM QD 655-labeled Aβ or QD605-labeled Aβ in a 1536-well plate according to our previous reports1,5. Fluorescence micrographs […]
presence of 600 and 120 µM RA.
(1 picture or pasted object on this page, not shown here) […]
QDAβ were incubated with various concentrations of chaperones i n a 1536-well plate for 24 h at 37 ° C and observed by fluorescence microscopy. C, E, and P indicate CRT , ERp57, and PDI, respectively. EC50 and the SD values were determined from the micrographs of three independent

[3] = target: T2, tau MBD fragment (Mus musculus, UniProt P10637); assay: MSHTS system, tau aggregation inhibition with QDTau nanoprobe; assay type: biochemical; details: 10 µM tau, 50 nM QDTau, 10 µM heparin, 10 mM DTT, 24 h at 37 °C
T2 construct: added N-terminal methionine (from NdeI site) (N); made in house; host or cells: E. coli Rosetta (DE3) pLys, pET-21a(+)
Excerpt: In this study, we used the microtubule-binding domain (MBD) fragment of 4-repeat tau (Fig. 4a) to image tau aggregation. First, we examined the aggregated condition of tau in the presence of heparin, which formed paired helical-like filaments under physiological conditions in vitro, according to early reports[24],[25]. […] Since 4-repeat tau contains two Cys residues (C222 and C253), it may be necessary for aggregation to occur, to inhibit intramolecular disulfide crosslinking, as was reported in a previous report. […] When 10 μM tau was incubated in the presence of 10 mM DTT, the SD value reached a maximum (Supplementary Fig. S10c,d), so we decided to observe aggregation using 10 μM tau. […] We compared tau and Aβ aggregates by TEM observation. The morphology of tau and Aβ fibrils was difficult to distinguish (Fig. 4b). […] We also confirmed by TEM observation that the aggregation of tau and Aβ contained QD nanoprobes (Fig. 4d). These aggregations were directly observed by confocal microscopy in real time (Fig. 4e). […] The imaging method using a QD nanoprobe without a drying step as in TEM observation may be suitable for detailed observation of aggregate shapes in solution.
Supplementary Fig. S11 Inhibition of tau aggregation by RA (a) and spearmint extract (b). 10 µM tau, 50 nM QDTau, 10 µM heparin, 10 mM DTT were incubated with various concentrations of RA […]
for 24 h at 37 ° C and observed by fluorescence microscopy. EC50 and the SD values were determined from the micrographs of three independent wells.
(1 picture or pasted object on this page, not shown here)
Supplementary Fig. S12 Inhibition of tau and Aβ aggregation by chaperones. 10 µM tau, 50 nM QDTau, 10 µM heparin, 10 mM DTT were incubated with various concentrations of chaperon es in a 1536-well plate for 24 h at 37 °C and observed by fluorescence microscopy. 30 µM Aβ , 30 nM QDAβ were incubated with various concentrations of chaperones i n a 1536-well plate for 24 h at 37 ° C and observed by fluorescence microscopy. C, E, and P indicate CRT , ERp57, and PDI, respectively. EC50 and the SD values were determined from the micrographs of three independent

[4] = test system: Aβ; set-up: method as in PMID 15511626; details: cited from earlier work

T1 sequence (P05067 672-713 limits assumed): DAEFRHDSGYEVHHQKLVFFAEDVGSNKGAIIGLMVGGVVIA
T2 sequence (P10637 with tags, fused parts or gaps isoform P10637-5 limits assumed): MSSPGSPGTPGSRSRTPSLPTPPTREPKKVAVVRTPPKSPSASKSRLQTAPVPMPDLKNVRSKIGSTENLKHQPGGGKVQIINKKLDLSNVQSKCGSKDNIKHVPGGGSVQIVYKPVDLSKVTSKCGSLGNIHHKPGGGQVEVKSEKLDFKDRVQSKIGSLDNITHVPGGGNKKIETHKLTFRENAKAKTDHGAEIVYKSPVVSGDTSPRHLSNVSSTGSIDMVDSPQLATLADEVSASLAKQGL

| Compound | EC50 ([1]; 25 µM Aβ, 25 nM QDAβ, 1536-well plate, 24 h at 37 °C, average of 61 sets, read-out: EC50 of Aβ aggregation inhibition, positive control) [µM] | Aβ aggregation inhibition at 120 µM, mixed by pipetting 10 times ([1]; 120 µM, pipetting 10 times) | Aβ aggregation inhibition at 120 µM, mixed by pipetting three or five times ([1]; 120 µM, pipetting three or five times) | Aβ aggregation at 300 and 60 µM ([1]; 300 and 60 µM, 25 µM Aβ, 24 h at 37 °C) | Aβ aggregation at 600 and 120 µM [2] | EC50 of tau aggregation inhibition (in words) [3] | inhibition of Aβ aggregation (in words) [4] |
| --- | --- | --- | --- | --- | --- | --- | --- |
| O=C(/C=C/c1ccc(O)c(O)c1)O[C@H](Cc1ccc(O)c(O)c1)C(=O)O [RA, rosmarinic acid] | 26.9 ± 4.57 | did not inhibit | inhibited | inhibited | inhibited | could not be determined | – |
| Tannic acid | – | – | – | – | – | – | dose-dependently inhibited |
